One data set has as its system microtubules. To be noted: in vitro / cells, in words; cited from earlier work.
The nature of data set [1]: Plasma stability, human plasma. In kind it is in vitro ADME. To be noted: 37° C. Here is the method: Stabilities of derivatives at various pHs were studied at 25° and 37°. The plasma studies were conducted at 37° in rat and human plasma. Human plasma was obtained from Watkins Hospital and rat plasma was obtained from the Animal Care Unit of the University of Kansas. […] One hundred microliter samples were removed and was quenched with 250 uL. acetonitrile and centrifuged to precipitate the plasma proteins. The degradation kinetics were studied by HPLC plotting peak area vs. time. The t90 and t50 were calculated. Both chemical and plasma studies were followed by high performance liquid chromatography using a RP-8 column (15 cm) and a precolumn (5 cm). The detector was set at 227 nm. The mobile phase consisted of 0.02M acetate (pH 5): acetonitrile 50:50 or 35:65 and the flow rate ranged from 1-1.5 mL/min or the same solvents containing 0.001M tetrabutylammoniumydrogensulphate and a flow rate of 1 mL/min.

A further data set is described as follows: Solubility. The format is physicochemical.
The nature of data set [2]: Chemical stability in buffer or water. The format is physicochemical. As to the method:
The compound was subjected to stability studies according to the following procedures.
Stabilities of derivatives at various pHs were studied at 25° and 37°. The plasma studies were conducted at 37° in rat and human plasma. Human plasma was obtained from Watkins Hospital and rat plasma was obtained from the Animal Care Unit of the University of Kansas. The derivative concentration used was around 20-25 μg/ml. A stock solution of the compound was prepared at 0.8-1.0 mg/mL and was added to plasma to give the desired concentration (20-25 μg/mL). One hundred microliter samples were removed and was quenched with 250 uL. acetonitrile and centrifuged to precipitate the plasma proteins. The degradation kinetics were studied by HPLC plotting peak area vs. time. The t90 and t50 were calculated. Both chemical and plasma studies were followed by high performance liquid chromatography using a RP-8 column (15 cm) and a precolumn (5 cm). The detector was set at 227 nm. The mobile phase consisted of 0.02M acetate (pH 5): acetonitrile 50:50 or 35:65 and the flow rate ranged from 1-1.5 mL/min or the same solvents containing 0.001M tetrabutylammoniumydrogensulphate and a flow rate of 1 mL/min.
The identity of this peak was further confirmed by the degradation studies of the new derivatives. Thus, 2'(DMG) taxol was incubated with water at 37° and the product was concentrated and purified by preparative TLC. The product after purification was analyzed by HPLC and spectroscopic methods.

Another data set concerns B-16 melanoma cells. As to the kind of experiment: In vitro B16 melanoma cell proliferation. The format is cell-based. To be noted: rank order. Here is the method: These studies were conducted according to standard procedures as described in Donoso and Himes, Cancer Biochem. Biophysics, vol. 7, (1984), p. 133.
Another data set relates to microtubule assembly. As to the kind of experiment: In vitro microtubule assembly kinetics. In kind it is biochemical. To be noted: rank order. As to the method:
(A) In vitro Microtubule Assembly Kinetics Studies
The microtubule assembly study was conducted using both 2' and 7-derivatives according to the in vitro procedures disclosed, for example, in Mellado et al., Biochemical and Biophysical Research Communications, Vol. 124, No. 2 (1984), pp. 329-336; Magri et al., J. Org. Chem., 51, 797-802 (1986); and Parness et al., Biochemical and Biophysical Research Communications, Vol. 105, No. 3, pp. 1082-1091 (1982).

In data set [3] the test system is human mammary carcinoma MX-1 xenograft. As to the kind of experiment: Subrenal capsule human mammary carcinoma MX-1 xenograft in mice. To be noted: for ANML BODY WT DIFF (test minus control) / TEST BODY WT CHG / # OF ANMLS ALIVE CALC/TOTAL / Average tumor WEIGHT CHANGE (DELTA) / Average tumor weight, FINAL: Q4D; for ANML BODY WT DIFF (test minus control) / TEST BODY WT CHG: Day 1 to 11. From the text: The procedures followed are those described at pages 23-24 of NIH Publication No. 84-2635, In Vivo Cancer Model (February 1984).
In the procedure, test groups of mice (6 mice per test group) and control groups of 12 mice per group are utilized. A tumor fragment (human mammary carcinoma MX-1 xenograft), is implanted under the membranous covering of the kidney of each mouse.
Day 0: Anesthetize animals. Record body weight (Weigh Day 1). Implant tumor, measure and record. Randomize animals after they recover from the anesthetic. Run bacterial cultures. Determine solubilities of test agent. Record deaths daily.
Day 1: Check cultures. Discard experiment if contaminated. Prepare test materials. Initiate test agent injections (in the nape of the neck) based on individual body weight. Treatment is Q4D on Days 1, 5, and 9. Prepare test agent fresh on each injection day and administer based on individual body weight for that day.
Days 5 and 9: Prepare test agent fresh on each injection day and administer based on individual body weight for that day.
Day 11: End and evaluate experiment. Record body weights (Weigh Day 2). Measure tumor in OMU's (Ocular Micrometer Unit--10 OMU's=1 mm) and record.
The parameter measured is mean tumor weight change (delta) based on length and width measurements in millimeters. Mean animal body weights are computed for Day 1 and Day 11, compute T/C for all test groups with>65% survivors on Day 11. An excessive body weight change difference (test minus control) may also be used in evaluating toxicity. The dimensions are measured and recorded in Ocular Micrometer Units (OMU). A computer is utilized for the following:
(1) Converts OMU's to millimeters (mm).
(2) Calculates tumor weights (mgs) from tumor dimensions (mm×mm) following the formula for the volume of a prolate ellipsoid: [formula] (3) Calculates the change (delta) in mean tumor weight for each group of mice:
Change in Mean Tumor Weight=Mean Tumor WeightFINAL -Mean Tumor WeightINITIAL.
(4) Calculates the change (delta) in mean tumor weight for test (T) and control (C) groups.
(5) Calculates T/C% for all test groups with>65% survivors on Final Evaluation Day: [formula]

Structures are written as SMILES. Counter-ions that a name gives are not always drawn. Like-named read-outs stand apart in the source and are kept apart here.

On to `CC[C@]1(O)C[C@@H]2CN(CCc3c([nH]c4ccccc34)[C@@](C(=O)OC)(c3cc4c(cc3OC)N(C)[C@H]3[C@@](O)(C(=O)OC)[C@H](OC(C)=O)[C@]5(CC)C=CCN6CC[C@]43[C@@H]65)C2)C1` [vinblastine], for which, in the data set on microtubules, the Effect on microtubules entry was “inhibit microtubule assembly and to depolymerize steady state microtubules”.
In data set [1] (human plasma (20 μg/mL)), `CC(=O)O[C@H]1C(=O)[C@]2(C)[C@@H](OC(=O)[C@H](C)N)C[C@H]3OC[C@@]3(OC(C)=O)[C@H]2[C@H](OC(=O)c2ccccc2)[C@]2(O)C[C@H](OC(=O)[C@H](O)[C@@H](NC(=O)c3ccccc3)c3ccccc3)C(C)=C1C2(C)C` [Methanesulphonic acid salt of 7-(alanyl)taxol] had a half-life of 11.9 h. For the same compound, in “Solubility” (read-out: Solubility), the solubility is greater than 2000 µg/mL.
For the compound `CCN(CC)CCC(=O)O[C@@H](C(=O)O[C@H]1C[C@@]2(O)[C@@H](OC(=O)c3ccccc3)[C@@H]3[C@]4(OC(C)=O)CO[C@@H]4C[C@H](O)[C@@]3(C)C(=O)[C@H](OC(C)=O)C(=C1C)C2(C)C)[C@@H](NC(=O)c1ccccc1)c1ccccc1` [Compound 4, Methanesulphonic acid salt of 2'(N,N-diethylaminopropionyl)taxol], the half-life is 305 h in data set [2] (0.02 M acetate, pH 4.5, 25° C.) and 20.7 h in data set [2] (0.02 M acetate, pH 5.5, 25° C.). Also, in “Solubility”, the solubility was greater than 10000 µg/mL.
`CCN(CC)CCC(=O)O[C@@H](C(=O)O[C@H]1C[C@@]2(O)[C@@H](OC(=O)c3ccccc3)[C@@H]3[C@]4(OC(C)=O)CO[C@@H]4C[C@H](O)[C@@]3(C)C(=O)[C@H](OC(C)=O)C(=C1C)C2(C)C)[C@@H](NC(=O)c1ccccc1)c1ccccc1` [preferred compound 1, 2'(N,N-diethylaminopropionyl)taxol]: the “Order of effectiveness in B-16 melanoma cell proliferation study” value in the data set on B-16 melanoma cells is on record as “taxol>2'-(N,N-dimethylglycyl)taxol>2'-(N,N-diethylaminopropionyl)taxol>7-(N,N-dimethylglycyl)taxol”. Also, in the data set on microtubule assembly, the “Ability to assemble microtubules (order)” value is “taxol >7-(N,N-dimethylglycyl)taxol(11)>2'(N,N-diethylaminopropionyl)taxol(8)>2'(N,N-dimethylglycyl)taxol(2)”.
Regarding `CCN(CC)CCC(=O)O[C@@H](C(=O)O[C@H]1C[C@@]2(O)[C@@H](OC(=O)c3ccccc3)[C@@H]3[C@]4(OC(C)=O)CO[C@@H]4C[C@H](O)[C@@]3(C)C(=O)[C@H](OC(C)=O)C(=C1C)C2(C)C)[C@@H](NC(=O)c1ccccc1)c1ccccc1` [Compound 3, HCl salt of 2'-(3-(N,N-diethylamino)propionyl)taxol], the half-life in data set [1] (Human plasma) was 0.07 h; in data set [2] (0.02 M Acetate, 0.01 mg/mL, pH 3.5, 25° C.), 439 h; in data set [2] (0.02 M Phosphate, 0.02 mg/mL, pH 7.4, 25° C.), 0.25 h. Also, in “Solubility”, the solubility was ~ 0.8 mg/mL. Moreover, the “ANML BODY WT DIFF (test minus control)” value is reported as 1.2 in data set [3] (Table 2, 4.50 mg/kg); 1.3 in data set [3] (Table 2, 9.00 mg/kg); “.7” in data set [3] (Table 2, 18.00 mg/kg). Moreover, the “TEST BODY WT CHG” value in data set [3] (Table 2, 4.50 mg/kg) is recorded as -2.8; in data set [3] (Table 2, 9.00 mg/kg), -2.7; in data set [3] (Table 2, 18.00 mg/kg), -3.3. The “# OF ANMLS ALIVE CALC/TOTAL” value in data set [3] (Table 2, 4.50 mg/kg, Day 11) is listed as 5/5; in data set [3] (Table 2, 9.00 mg/kg, Day 11), 5/5; in data set [3] (Table 2, 18.00 mg/kg, Day 11), 3/4; in data set [3] (Table 2, 36.00 mg/kg, Day 11), 0/5. Further, the “Average tumor WEIGHT CHANGE (DELTA)” value in data set [3] (Table 2, 4.50 mg/kg, Day 11) is on record as “-.78 MGS”; in data set [3] (Table 2, 9.00 mg/kg, Day 11), “-.87 MGS”; in data set [3] (Table 2, 18.00 mg/kg, Day 11), “-.82 MGS”. Also, the “Average tumor weight, FINAL” value is “.00 MGS” in data set [3] (Table 2, 4.50 mg/kg, Day 11); “.00 MGS” in data set [3] (Table 2, 9.00 mg/kg, Day 11); “.00 MGS” in data set [3] (Table 2, 18.00 mg/kg, Day 11). Moreover, the “% T/C” value in data set [3] (Table 2, 36.00 mg/kg, Q4D Days 1, 5, 9, Day 11) is “TOX”.
As to `COc1cc2c(c(OC)c1OC)-c1ccc(OC)c(=O)cc1[C@@H](NC(C)=O)CC2` [colchicine], in the data set with microtubules, the Effect on microtubules entry was “depolymerize microtubules in cells”.
`CC[C@]1(O)C[C@H]2CN(CCc3c([nH]c4ccccc34)[C@@](C(=O)OC)(c3cc4c(cc3OC)N(C=O)[C@H]3[C@@](O)(C(=O)OC)[C@H](OC(C)=O)[C@]5(CC)C=CCN6CC[C@]43[C@@H]65)C2)C1` [vincristine]: in the data set with microtubules, the Effect on microtubules result is “inhibit microtubule assembly and to depolymerize steady state microtubules”.
Take `CC(=O)O[C@H]1C(=O)[C@]2(C)[C@@H](OC(=O)CN(C)C)C[C@H]3OC[C@@]3(OC(C)=O)[C@H]2[C@H](OC(=O)c2ccccc2)[C@]2(O)C[C@H](OC(=O)[C@H](OC(=O)CN(C)C)[C@@H](NC(=O)c3ccccc3)c3ccccc3)C(C)=C1C2(C)C` [dimethanesulphonic acid salt of 2'7-(N,N-dimethylglycyl)taxol]: in the data set “Solubility” (read-out: Solubility), the solubility is greater than 10000 µg/mL.

For orientation: half-life means how long it takes for the measured level to halve. Usually solubility stands for the dissolved amount per volume that the medium holds.
